# Values quoted from earlier work in paper PMC10872542 (Structure (London, England : 1993), 2023).
# Tested on: TRPV5
# Conditions: read-out: IC50 of TRPV5 inhibition
row,Structure (SMILES),IC50 [nM]
1,CC(OC(=O)CC1Sc2ccccc2NC1=O)c1nc2scc(-c3ccccc3)c2c(=O)[nH]1 (stereo not drawn) [ZINC9155420],~3000
2,O=C(CCN1C(=O)COc2ccccc21)OCc1nc2scc(-c3ccccc3)c2c(=O)[nH]1 [ZINC17988990],~100
3,Cl.Cl.Cl.Cl.Cl.Cl.N.N.N.N.N.N.N.N.N.N.N.N.N.N.[O-2].[O-2].[Ru+3].[Ru+3].[Ru+4] [ruthenium red],~100
